Tests used:
[1] = target: T1, IKKα (Homo sapiens, UniProt O15111); test: kinase activity of IKKα; format: cell-based
T1 sequence (O15111 1-745): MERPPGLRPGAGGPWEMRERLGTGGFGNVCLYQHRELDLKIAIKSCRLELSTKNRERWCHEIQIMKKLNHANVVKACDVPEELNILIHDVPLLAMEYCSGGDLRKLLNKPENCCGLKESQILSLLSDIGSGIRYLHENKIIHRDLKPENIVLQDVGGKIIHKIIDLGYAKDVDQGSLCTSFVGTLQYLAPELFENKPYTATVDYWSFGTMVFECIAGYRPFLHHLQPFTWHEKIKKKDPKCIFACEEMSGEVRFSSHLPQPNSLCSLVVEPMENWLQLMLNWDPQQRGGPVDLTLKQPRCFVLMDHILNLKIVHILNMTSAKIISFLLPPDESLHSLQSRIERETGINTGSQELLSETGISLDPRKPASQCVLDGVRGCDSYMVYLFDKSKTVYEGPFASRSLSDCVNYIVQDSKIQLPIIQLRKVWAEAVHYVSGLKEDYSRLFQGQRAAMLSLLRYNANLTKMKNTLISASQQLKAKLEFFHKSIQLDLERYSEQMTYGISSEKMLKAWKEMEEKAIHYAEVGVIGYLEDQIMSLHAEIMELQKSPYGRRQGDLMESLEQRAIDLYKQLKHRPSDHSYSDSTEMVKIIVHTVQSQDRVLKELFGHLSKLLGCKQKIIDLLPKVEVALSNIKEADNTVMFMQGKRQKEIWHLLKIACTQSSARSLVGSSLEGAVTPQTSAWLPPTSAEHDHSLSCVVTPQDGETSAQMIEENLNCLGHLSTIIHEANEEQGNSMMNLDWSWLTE
Method: (§1) To clarify the molecular mechanism, glucosamine-derived N-acetyl-phenylalanine has been studied in vitro, using primary cultured chondrocytes. The chondrocytes were stimulated with IL-1 in order to study the inflammatory pathway, controlled by the Activator Protein (AP)-1. […] The efficacy of interfering with the inflammatory pathway controlled by the transcription factor Nuclear Factor-κB (NF-κB) was then analyzed, which in turn is controlled by the IKK complex consisting of two IKKα and IKKβ kinases.

[2] = system: c-jun; test: activation of c-jun (AP-1 component) in primary cultured chondrocytes stimulated with IL-1; format: cell-based
Method: as §1

[3] = system: p38; test: p38 phosphorylation in primary cultured chondrocytes stimulated with IL-1; format: cell-based
Method: as §1

[4] = target: T2, IKKβ (Homo sapiens, UniProt O14920); test: kinase activity of IKKβ; format: cell-based
T2 sequence (O14920 1-756): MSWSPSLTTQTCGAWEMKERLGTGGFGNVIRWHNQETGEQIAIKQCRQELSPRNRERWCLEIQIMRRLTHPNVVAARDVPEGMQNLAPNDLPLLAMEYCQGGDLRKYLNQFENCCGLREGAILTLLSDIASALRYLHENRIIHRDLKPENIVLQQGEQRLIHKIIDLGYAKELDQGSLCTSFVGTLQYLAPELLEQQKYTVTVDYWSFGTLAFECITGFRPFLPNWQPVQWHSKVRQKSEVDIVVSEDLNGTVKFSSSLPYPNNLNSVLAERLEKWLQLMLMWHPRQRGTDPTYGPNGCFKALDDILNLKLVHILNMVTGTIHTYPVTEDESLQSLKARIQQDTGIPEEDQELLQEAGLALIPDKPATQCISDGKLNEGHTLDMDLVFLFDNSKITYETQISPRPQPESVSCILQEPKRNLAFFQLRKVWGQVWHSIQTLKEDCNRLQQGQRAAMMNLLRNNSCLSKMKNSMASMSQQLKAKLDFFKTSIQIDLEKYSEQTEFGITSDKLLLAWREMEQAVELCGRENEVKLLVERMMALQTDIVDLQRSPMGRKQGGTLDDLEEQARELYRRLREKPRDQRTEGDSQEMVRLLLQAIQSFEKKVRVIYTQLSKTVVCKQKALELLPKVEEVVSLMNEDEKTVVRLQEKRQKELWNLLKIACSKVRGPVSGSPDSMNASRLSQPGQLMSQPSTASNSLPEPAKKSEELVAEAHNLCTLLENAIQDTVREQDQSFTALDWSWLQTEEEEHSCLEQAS
Method: as §1

[5] = system: osteoarthritic knees of mice; test: in vivo model of OA in mice, intra-articular administration; conditions: mice OA knee
[6] = system: human primary chondrocytes; test: human primary chondrocytes cultured in three dimensions as spheroids, ECM synthesis; format: cell-based; conditions: human chondrocyte spheroids, compound alone
Method: Finally, in order to understand which intracellular pathways are activated by said N-acetyl-phenylalanine derived from glucosamine to stimulate ECM synthesis, further in vitro studies in human primary chondrocytes were conducted. In order to simulate physiological conditions, the culture of human chondrocytes was carried out in three dimensions, cultivating the cells in the form of spheroids.

[7] = system: fibroblasts stimulated with UVB; test: fibroblasts stimulated with UVB; format: cell-based
Description: This discovery promptly aroused in the inventors an interest in the ability of this class of products to intervene in the remodeling of the cutaneous ECM, in which the relative alteration of turnover leads to atrophy of the skin, with consequent aging of the skin and in some cases even to onset of skin cancer processes.

[8] = system: osteoarthritic knees of rabbits; test: in vivo model of OA in rabbit, intra-articular administration; conditions: rabbit OA knee
[9] = target: T1, IKKα; test: translocation of IKKα kinase in the nucleus, primary cultured chondrocytes; format: cell-based
Method: as §1

[10] = system: JNK; test: JNK phosphorylation in primary cultured chondrocytes stimulated with IL-1; format: cell-based
Method: as §1

[11] = system: HAS-2; test: expression of hyaluronic acid synthetase (HAS-2) and production of hyaluronic acid; format: cell-based

- kinase activity of IKKβ [4]: not IKKβ
- expression of the enzyme synthetase of hyaluronic acid (HAS-2) [11]: stimulate the expression
- production of hyaluronic acid (HA) [11]: stimulate
SMILES: CC(=O)N[C@H](Cc1ccccc1)C(=O)NC1C(O)OC(CO)C(O)C1O (stereo partly drawn) [N-acetyl-phenylalanine derivative of glucosamine]
- kinase activity of IKKα [1]: selectively inhibiting the kinase activity of IKKα
- activation of c-jun [2]: influencing the activation of c-jun
- phosphorylation of p38 [3]: inhibiting the phosphorylation
- cartilage structure [5]: structure very similar to the healthy one
- synthesis of new ECM [5]: stimulated the synthesis of new ECM
- synthesis of type II collagen [6]: stimulated the synthesis of type II collagen
- synthesis of type I collagen ([7]; UVB-stimulated fibroblasts, synthesis blocked by UVB treatment): restore the synthesis of type I collagen
- inflammatory pathways stimulated by UVB ([7]; compound added to culture medium of UVB-stimulated fibroblasts): able to counteract the inflammatory pathways
- cartilage structure [8]: structure very similar to the healthy one
- synthesis of new ECM [8]: stimulated the synthesis of new ECM
- translocation in the nucleus of the IKKα kinase [9]: inhibited the translocation in the nucleus
- phosphorylation of JNK [10]: inhibiting the phosphorylation

From patent US12084471B2, “Amino acid derivative of glucosamine stimulating extracellular matrix synthesis and pharmaceutical composition comprising the same” (CARTILAGO S.R.L., priority 2018, dated 2024)
